The first assay has as its system OVCAR4. The assay can be described thus: drug sensitivity score (DSS) from 5-point dose-response viability curve (DSS (area-under-curve based score)); higher = more sensitive (stronger growth inhibition or killing); extreme values may be limits of the assay. Particulars: exposure time: 72 h; concentration range: 5 concentrations over 10,000-fold range. Summed up: (§1)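 Ovarian cancer and normal ovarian cell lines were tested in 384-well plates. Drugs were acoustically dispensed (Echo 550) in DMSO or water at five concentrations spanning a 10,000-fold range, then 1,500 cells per well were added and incubated 3 days at 37°C, 5% CO2. Viability was read by CellTiter-Glo luminescence on a PHERAstar FS. Drug sensitivity score was derived per cell line and drug with Breeze software; higher means more sensitive, zero means no response.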
Take `CCCCCOC(=O)Nc1nc(=O)n([C@@H]2O[C@H](C)[C@@H](O)[C@H]2O)cc1F` [Capecitabine]: the drug sensitivity score was 0.

As to `COc1ccc2[nH]cc(/C=C3\C(=O)Nc4ccc(NC(=O)CCN5CCCCC5)cc43)c2c1`, the drug sensitivity score is 4.9.

For the molecule `CNC(=O)c1nn(C)c2c1C(C)(C)Cc1cnc(Nc3ccc(N4CCN(C)CC4)cc3)nc1-2` [Milciclib], the drug sensitivity score was determined as 6.4.

`C[C@H]1C[C@@H]2[C@H]([C@@H](O)C[C@@]3(C)[C@H]2CC[C@]3(O)C(=O)CO)[C@@]2(C)C=CC(=O)C=C12` [Methylprednisolone] registered a drug sensitivity score of 0.

`CCc1c(C(=O)C(N)=O)c2c(OCC(=O)O)cccc2n1Cc1ccccc1` [Varespladib] displayed a drug sensitivity score of 0.

Regarding `Cc1ccc(C(=O)Nc2ccc(Oc3cc4cnn(C)c4cc3-c3cn[nH]c3)c(F)c2)c(=O)n1-c1ccc(F)cc1` [Merestinib], the drug sensitivity score was 0.4.

`Clc1ccccc1C(c1ccccc1)(c1ccccc1)n1cccn1` [TRAM-34] came in with a drug sensitivity score of 0.

In turn, `Cc1cc(Nc2cc(N3CCN(C)CC3)nc(/C=C/c3ccccc3)n2)n[nH]1` [ENMD-2076] had a drug sensitivity score of 5.8.

For the molecule `O=C(Nc1cccc(Nc2ncc(Br)c(NCCc3cnc[nH]3)n2)c1)N1CCCC1` [BX-912], the drug sensitivity score came to 3.7.

In turn, `COc1cc(OC)c(/C=C/S(=O)(=O)Cc2ccc(OC)c(NCC(=O)O)c2)c(OC)c1` [Rigosertib] had a drug sensitivity score of 10.9.

In the case of `CCS(=O)(=O)c1cccc(-c2cc(C(=O)NC3CCN(C)CC3)c(C)c3[nH]c4ncc(C)cc4c23)c1` [TAK-901], the drug sensitivity score was found to be 5.8.

Take `CC(C)NC(=O)COc1cccc(-c2nc(Nc3ccc4[nH]ncc4c3)c3ccccc3n2)c1` [KD025]: the drug sensitivity score is 3.6.

`COc1cccc(-c2ccc(NC(=O)C3=C(C(=O)O)CCC3)c(F)c2)c1` [Vidofludimus]: the drug sensitivity score was 0.

For the molecule `C=CCN(/C=C1/C(=O)O[C@H](COC)[C@@]2(C)C1=C(O)C(=O)C1=C2[C@H](OC(C)=O)C[C@]2(C)C(=O)CC[C@@H]12)CC=C` [Sonolisib], the drug sensitivity score is 0.

The molecule `C=C(c1ccc(C(=O)O)cc1)c1cc2c(cc1C)C(C)(C)CCC2(C)C` [Bexarotene] gave a drug sensitivity score of 0.

The molecule `CC1CCC(n2c3cnccc3c3cnc(Nc4ccc5c(n4)CCN(C(=O)CO)C5)nc32)CC1` (configuration not stated) [AMG-925] came in with a drug sensitivity score of 0.

Another assay deals with OVCAR5. The assay is described as above. Particulars: exposure time: 72 h; concentration range: 5 concentrations over 10,000-fold range. The procedure, abridged: as §1
`C[C@@]1(C(=O)Nc2ccc(F)nc2)CCCN1c1nc(Nc2cc(C3CC3)n[nH]2)c2cccn2n1` had a drug sensitivity score of 14.4.

`Nc1nc2[nH]cc(CCc3ccc(C(=O)N[C@@H](CCC(=O)O)C(=O)O)cc3)c2c(=O)[nH]1` [Pemetrexed] registered a drug sensitivity score of 7.6.

`CCC(C)n1ncn(-c2ccc(N3CCN(c4ccc(OCC5COC(Cn6cncn6)(c6ccc(Cl)cc6Cl)O5)cc4)CC3)cc2)c1=O` (configuration not stated) [Itraconazole] yielded a drug sensitivity score of 5.9.

In turn, `NCC(=O)Nc1ccc(-n2nc(C(F)(F)F)cc2-c2ccc3c(ccc4ccccc43)c2)cc1` gave a drug sensitivity score of 0.

`O=C1CN2Cc3c(ccc(Cl)c3Cl)N=C2N1` [Anagrelide] registered a drug sensitivity score of 0.

In the case of `CN1CCC(COc2cnc(-c3cccc(Cn4nc(-c5cccc(C#N)c5)ccc4=O)c3)nc2)CC1` [Tepotinib], the drug sensitivity score was 0.

Molecule `Cc1cc2c(F)c(Oc3ncnn4cc(OC[C@@H](C)O)c(C)c34)ccc2[nH]1` [Brivanib] yielded a drug sensitivity score of 0.

`COc1cc2c(NC3CCN(C(C)C)CC3)nc(N3CCC(F)(F)CC3)nc2cc1OCCCN1CCCC1` [UNC0642]: the drug sensitivity score was found to be 1.

The molecule `Nc1ccn([C@@H]2O[C@H](CO)[C@@H](O)C2(F)F)c(=O)n1` [Gemcitabine] returned a drug sensitivity score of 15.5.

`Cc1ccc(C(=O)Nc2ccc(CN3CCN(C)CC3)c(C(F)(F)F)c2)cc1C#Cc1cnc2cccnn12` [Ponatinib]: the drug sensitivity score is 5.5.

`Oc1ccc2c(c1)CC[C@H](c1ccccc1)[C@@H]2c1ccc(OCCN2CCCC2)cc1` [Lasofoxifene] came in with a drug sensitivity score of 0.

`NCCNc1ccc(NCCN)c2c1C(=O)c1ccncc1C2=O` [Pixantrone] came in with a drug sensitivity score of 0.

`COc1cc(Nc2ncc(F)c(Nc3ccc4c(n3)N(COP(=O)(O)O)C(=O)C(C)(C)O4)n2)cc(OC)c1OC` [Fostamatinib] showed a drug sensitivity score of 3.7.

`C=CC(=O)Nc1cccc(Nc2nc(Nc3ccc(N4CCN(C(C)=O)CC4)cc3OC)ncc2C(F)(F)F)c1` [Rociletinib] registered a drug sensitivity score of 7.5.

For the molecule `O=C(O)c1ccc(O)c2ncccc12` [IOX-1], the drug sensitivity score is 1.

Molecule `CCCCCOC(=O)Nc1nc(=O)n([C@@H]2O[C@H](C)[C@@H](O)[C@H]2O)cc1F` [Capecitabine] displayed a drug sensitivity score of 0.3.

In the case of `COc1ccc2[nH]cc(/C=C3\C(=O)Nc4ccc(NC(=O)CCN5CCCCC5)cc43)c2c1`, the drug sensitivity score was 9.4.

For the molecule `CNC(=O)c1nn(C)c2c1C(C)(C)Cc1cnc(Nc3ccc(N4CCN(C)CC4)cc3)nc1-2` [Milciclib], the drug sensitivity score was 9.4.

`C[C@H]1C[C@@H]2[C@H]([C@@H](O)C[C@@]3(C)[C@H]2CC[C@]3(O)C(=O)CO)[C@@]2(C)C=CC(=O)C=C12` [Methylprednisolone]: the drug sensitivity score came out at 0.

On to `CCc1c(C(=O)C(N)=O)c2c(OCC(=O)O)cccc2n1Cc1ccccc1` [Varespladib], for which the drug sensitivity score stood at 0.

For `Cc1ccc(C(=O)Nc2ccc(Oc3cc4cnn(C)c4cc3-c3cn[nH]c3)c(F)c2)c(=O)n1-c1ccc(F)cc1` [Merestinib], the drug sensitivity score turned out to be 0.9.

In the case of `Clc1ccccc1C(c1ccccc1)(c1ccccc1)n1cccn1` [TRAM-34], the drug sensitivity score stood at 5.

In turn, `Cc1cc(Nc2cc(N3CCN(C)CC3)nc(/C=C/c3ccccc3)n2)n[nH]1` [ENMD-2076] showed a drug sensitivity score of 9.6.

For the molecule `O=C(Nc1cccc(Nc2ncc(Br)c(NCCc3cnc[nH]3)n2)c1)N1CCCC1` [BX-912], the drug sensitivity score was determined as 2.4.

In turn, `COc1cc(OC)c(/C=C/S(=O)(=O)Cc2ccc(OC)c(NCC(=O)O)c2)c(OC)c1` [Rigosertib] had a drug sensitivity score of 17.

`CCS(=O)(=O)c1cccc(-c2cc(C(=O)NC3CCN(C)CC3)c(C)c3[nH]c4ncc(C)cc4c23)c1` [TAK-901]: the drug sensitivity score amounted to 4.7.

For `CC(C)NC(=O)COc1cccc(-c2nc(Nc3ccc4[nH]ncc4c3)c3ccccc3n2)c1` [KD025], the drug sensitivity score turned out to be 2.

`COc1cccc(-c2ccc(NC(=O)C3=C(C(=O)O)CCC3)c(F)c2)c1` [Vidofludimus] gave a drug sensitivity score of 0.

For `C=CCN(/C=C1/C(=O)O[C@H](COC)[C@@]2(C)C1=C(O)C(=O)C1=C2[C@H](OC(C)=O)C[C@]2(C)C(=O)CC[C@@H]12)CC=C` [Sonolisib], the drug sensitivity score came to 0.

`C=C(c1ccc(C(=O)O)cc1)c1cc2c(cc1C)C(C)(C)CCC2(C)C` [Bexarotene]: the drug sensitivity score was determined as 0.

`CC1CCC(n2c3cnccc3c3cnc(Nc4ccc5c(n4)CCN(C(=O)CO)C5)nc32)CC1` (configuration not stated) [AMG-925] registered a drug sensitivity score of 2.5.
